In patent US10968236B2, “TYK2 inhibitors and uses thereof” (Nimbus Lakshmi, Inc., priority 2015, dated 2021) one finds Ki data, which are given here for 22 compounds.

Assay [1] has as its target TYK2 (Homo sapiens (Human), UniProt P29597). Put plainly: Tyk2 activity inhibition assay (radioactive kinase / Caliper assay). The assay is classed as biochemical. How it is done: (§1) Peptide substrate, [KKSRGDYMTMQIG], (20 μM) is prepared in reaction buffer (20 mM Hepes pH 7.5, 10 mM MgCl2, 1 mM EGTA, 0.02% Brij35, 0.02 mg/mL BSA, 0.1 mM […], 2 mM DTT, 1% DMSO. TYK2 (Invitrogen) kinase is added, followed by compounds in DMSO. 33PATP is added to initiate the reaction in ATP at 10 μM. Kinase reaction is incubated for 120 min at room temp and reactions are spotted onto P81 ion exchange paper (Whatman #3698-915), and then washed extensively in 0.75% phosphoric acid, prior to reading the radioactivity counts. For JAK2 (Invitrogen) kinase assay the peptide substrate poly[Glu:Tyr] (4:1), 0.2 mg/ml is used, in the reaction carried out the same as for TYK2.
(§2) The caliper machine employs an off chip mobility shift assay to detect phosphorylated peptide substrates from kinase assays, using microfluidics technology. The assays are carried out at ATP concentration equivalent to the ATP Km, and at 1 mM ATP. Compounds are serially diluted in DMSO then further diluted in assay buffer (25 mM HEPES, pH 7.5, 0.01% Brij-35, 0.01% Triton, 0.5 mM EGTA). 5 ul of diluted compound was added into wells first, then 10 ul of enzyme mix was added into wells, followed by 10 uL of substrate mix (peptide and ATP in 10 mM MgCl2) to start reaction. Reaction was incubated at 28° C. for 25 min and then added 25 ul stop buffer (100 mM HEPES, 0.015% Brij-35, 50 mM EDTA), followed by reading with Caliper. JAK2 at 1 nM final concentration and TYK2 at 9.75 nM are from Carna, and substrates used are ATP at 20 and 16 uM, respectively. JAK2 assay uses peptide 22 and TYK2 uses peptide 30 (Caliper), each at 3 uM.
(§3) The compound numbers correspond to the compound numbers in Table 1. Compounds having an activity designated as “A” provided an Ki≤0.01 μM; compounds having an activity designated as “B” provided an Ki of 0.01-0.1 μM; compounds having an activity designated as “C” provided an Ki of 0.1-1.0 μM; and compounds having an activity designated as “D” provided an Ki≥1.0 μM.

Assay [2] addresses JAK2 (Homo sapiens (Human), UniProt O60674). Put plainly: JAK2 activity inhibition assay (radioactive kinase / Caliper assay). It is filed as biochemical. How it is done:
as §1, §2, §3

In general, Ki refers to the dissociation constant of the complex between target and ligand, obtained from inhibition or displacement.

The structures appear in SMILES notation. Where a name gives a salt, the structure may show the parent alone. A value given as a limit tells only on which side of the number the result lay.

Sequence of TYK2 (P29597 whole entry): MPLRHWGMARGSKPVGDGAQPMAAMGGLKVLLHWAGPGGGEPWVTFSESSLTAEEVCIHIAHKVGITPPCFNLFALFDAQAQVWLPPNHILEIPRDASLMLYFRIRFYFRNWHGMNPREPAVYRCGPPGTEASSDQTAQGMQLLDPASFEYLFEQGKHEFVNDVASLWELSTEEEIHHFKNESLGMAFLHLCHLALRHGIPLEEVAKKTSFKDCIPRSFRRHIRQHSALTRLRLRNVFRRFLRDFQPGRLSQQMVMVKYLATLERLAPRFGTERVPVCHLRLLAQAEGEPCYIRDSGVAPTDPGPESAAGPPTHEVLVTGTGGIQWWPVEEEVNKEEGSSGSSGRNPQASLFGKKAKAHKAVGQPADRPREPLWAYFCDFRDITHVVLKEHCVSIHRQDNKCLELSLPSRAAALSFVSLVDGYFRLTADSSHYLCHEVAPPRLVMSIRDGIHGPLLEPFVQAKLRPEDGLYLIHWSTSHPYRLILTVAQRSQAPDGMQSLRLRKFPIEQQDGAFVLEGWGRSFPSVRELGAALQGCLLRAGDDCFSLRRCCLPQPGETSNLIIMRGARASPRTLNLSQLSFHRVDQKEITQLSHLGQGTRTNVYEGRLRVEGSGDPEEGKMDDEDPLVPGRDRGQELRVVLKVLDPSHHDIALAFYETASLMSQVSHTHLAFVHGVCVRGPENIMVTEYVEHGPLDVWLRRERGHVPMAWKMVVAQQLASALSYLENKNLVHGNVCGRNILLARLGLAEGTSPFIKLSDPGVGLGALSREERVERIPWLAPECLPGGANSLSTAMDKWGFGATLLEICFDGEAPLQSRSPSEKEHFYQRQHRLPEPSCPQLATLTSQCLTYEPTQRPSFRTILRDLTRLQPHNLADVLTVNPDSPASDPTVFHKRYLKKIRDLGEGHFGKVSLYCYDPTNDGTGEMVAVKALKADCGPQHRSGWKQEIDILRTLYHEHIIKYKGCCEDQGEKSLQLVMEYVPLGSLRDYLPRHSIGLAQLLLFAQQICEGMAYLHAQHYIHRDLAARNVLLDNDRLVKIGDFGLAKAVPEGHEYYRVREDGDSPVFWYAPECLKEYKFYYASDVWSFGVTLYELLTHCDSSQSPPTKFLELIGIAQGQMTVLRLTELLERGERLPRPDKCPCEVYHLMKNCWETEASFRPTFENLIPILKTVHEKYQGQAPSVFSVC
Sequence of JAK2 (O60674 whole entry): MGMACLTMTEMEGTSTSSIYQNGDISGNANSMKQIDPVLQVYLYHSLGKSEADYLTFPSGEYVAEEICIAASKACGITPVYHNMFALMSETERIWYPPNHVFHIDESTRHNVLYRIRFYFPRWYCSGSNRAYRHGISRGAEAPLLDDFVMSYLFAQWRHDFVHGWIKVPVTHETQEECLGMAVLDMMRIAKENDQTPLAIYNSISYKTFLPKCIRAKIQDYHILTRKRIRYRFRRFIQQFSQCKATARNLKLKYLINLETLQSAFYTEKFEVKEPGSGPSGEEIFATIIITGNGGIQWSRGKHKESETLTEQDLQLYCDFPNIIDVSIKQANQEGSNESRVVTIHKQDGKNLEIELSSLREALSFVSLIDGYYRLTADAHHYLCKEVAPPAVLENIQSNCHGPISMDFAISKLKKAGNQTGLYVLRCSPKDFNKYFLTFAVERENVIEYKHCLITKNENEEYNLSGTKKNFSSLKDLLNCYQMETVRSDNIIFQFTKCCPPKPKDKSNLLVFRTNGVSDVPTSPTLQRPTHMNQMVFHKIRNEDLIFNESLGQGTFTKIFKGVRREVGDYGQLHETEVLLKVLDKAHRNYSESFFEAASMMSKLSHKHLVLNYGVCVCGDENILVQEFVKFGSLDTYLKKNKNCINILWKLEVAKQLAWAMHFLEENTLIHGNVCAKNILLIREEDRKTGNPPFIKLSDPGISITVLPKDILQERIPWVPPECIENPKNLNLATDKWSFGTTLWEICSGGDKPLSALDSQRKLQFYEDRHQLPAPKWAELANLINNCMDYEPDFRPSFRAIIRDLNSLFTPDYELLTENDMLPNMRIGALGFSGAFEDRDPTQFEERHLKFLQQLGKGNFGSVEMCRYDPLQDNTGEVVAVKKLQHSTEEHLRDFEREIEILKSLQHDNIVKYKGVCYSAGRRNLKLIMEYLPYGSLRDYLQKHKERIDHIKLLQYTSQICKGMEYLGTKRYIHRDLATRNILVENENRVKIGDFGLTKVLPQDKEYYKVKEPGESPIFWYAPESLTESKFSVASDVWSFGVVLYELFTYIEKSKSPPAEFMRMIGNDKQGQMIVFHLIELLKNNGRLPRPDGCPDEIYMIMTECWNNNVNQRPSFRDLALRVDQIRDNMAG

`CCNC(=O)C(C)(O)c1ccc(Nc2nc(-c3c(F)cccc3F)nc3c2C(=O)NC3)cc1` (centres unmarked) [Compound I-14, 2-(4-((2-(2,6-difluorophenyl)-5-oxo-6,7-dihydro-5H-pyrrolo[3,4-d]pyrimidin-4-yl)amino)phenyl)-N-ethyl-2-hydroxypropanamide]: the Ki in assay [1] was not above 10 nM; in assay [2], 100 to 1000 nM.
For the compound `O=C1NCc2nc(-c3c(F)cccc3F)cc(Nc3ccc4c(n3)NCC4)c21` [Compound I-22, 2-(2,6-difluorophenyl)-4-((2,3-dihydro-1H-pyrrolo[2,3-b]pyridin-6-yl)amino)-6,7-dihydro-5H-pyrrolo[3,4-b]pyridin-5-one], the inhibitory constant (Ki) in assay [1] is not above 10 nM; in assay [2], 10 to 100 nM.
As for `Nc1ccc2ccn(-c3cc(-c4c(F)cccc4F)nc4c3C(=O)NC4)c2n1` [Compound I-19, 4-(6-amino-1H-pyrrolo[2,3-b]pyridin-1-yl)-2-(2,6-difluorophenyl)-6,7-dihydro-5H-pyrrolo[3,4-b]pyridin-5-one], the Ki in assay [1] is 10 to 100 nM; in assay [2], not below 1000 nM.
Consider `O=C1NCc2nc(-c3c(F)cccc3F)cc(Nc3ccc(N4CCC5(CC4)COC5)cn3)c21` [Compound I-24, 4-((5-(2-oxa-7-azaspiro[3.5]nonan-7-yl)pyridin-2-yl)amino)-2-(2,6-difluorophenyl)-6,7-dihydro-5H-pyrrolo[3,4-b]pyridin-5-one], for which the Ki in assay [1] and in assay [2] was not above 10 nM in each case.
In the case of `N#Cc1cccc(F)c1-c1cc(Nc2ccc(N3C[C@H]4COC[C@H]4C3)nc2)c2c(n1)CNC2=O` [Compound I-74, 3-fluoro-2-(5-oxo-4-((6-((3aR,6aS)-tetrahydro-1H-furo[3,4-c]pyrrol-5(3H)-yl)pyridin-3-yl)amino)-6,7-dihydro-5H-pyrrolo[3,4-b]pyridin-2-yl)benzonitrile], the Ki in assay [1] was not above 10 nM; in assay [2], 100 to 1000 nM.
Regarding `O=C1NCc2nc(-c3c(F)cccc3F)cc(Nc3ccc(C(=O)N4C[C@H]5COC[C@H]5C4)cc3)c21` [Compound I-63, 2-(2,6-difluorophenyl)-4-((4-((3aR,6aS)-hexahydro-1H-furo[3,4-c]pyrrole-5-carbonyl)phenyl)amino)-6,7-dihydro-5H-pyrrolo[3,4-b]pyridin-5-one], the values for the inhibition constant (Ki) in assay [1] and in assay [2] were not above 10 nM and 10 to 100 nM, respectively.
Take `O=C1NCc2nc(-n3c(F)cccc3=O)cc(Nc3ccc(N4CCOCC4)cn3)c21` [Compound I-56, 2-(6-fluoro-2-oxopyridin-1(2H)-yl)-4-((5-morpholinopyridin-2-yl)amino)-6,7-dihydro-5H-pyrrolo[3,4-b]pyridin-5-one]: the Ki in assay [1] fell in the range of 10 to 100 nM; in assay [2], 100 to 1000 nM.
`O=C1NCc2nc(-c3c(F)cccc3F)cc(Nc3ccc(C(=O)N4CCOC5(CC5)C4)cc3)c21` [Compound I-50, 4-((4-(4-oxa-7-azaspiro[2.5]octane-7-carbonyl)phenyl)amino)-2-(2,6-difluorophenyl)-6,7-dihydro-5H-pyrrolo[3,4-b]pyridin-5-one]: the inhibition constant (Ki) in assay [1] was not above 10 nM; in assay [2] it was 10 to 100 nM.
On to `CN1C(=O)C(C)(c2ccc(Nc3nc(-c4c(F)cccc4F)nc4c3C(=O)NC4)cc2)Oc2ccccc21` (centres unmarked) [Compound I-39, 2-(4-((2-(2,6-difluorophenyl)-5-oxo-6,7-dihydro-5H-pyrrolo[3,4-d]pyrimidin-4-yl)amino)phenyl)-2,4-dimethyl-2H-benzo[b][1,4]oxazin-3(4H)-one], for which the Ki in assay [1] was not above 10 nM; in assay [2], 100 to 1000 nM.
As to `N#Cc1cccc(F)c1-c1cc(Nc2ccc(N3C[C@H]4COC[C@H]4C3)cn2)c2c(n1)CNC2=O` [Compound I-76, 3-fluoro-2-(5-oxo-4-((5-((3aR,6aS)-tetrahydro-1H-furo[3,4-c]pyrrol-5(3H)-yl)pyridin-2-yl)amino)-6,7-dihydro-5H-pyrrolo[3,4-b]pyridin-2-yl)benzonitrile], the Ki in assay [1] is not above 10 nM; in assay [2] it was 10 to 100 nM.
For `O=C1NCc2nc(-c3c(F)cccc3F)cc(Nc3ccc(N4C[C@H]5COC[C@H]5C4)nc3)c21` [Compound I-73, 2-(2,6-difluorophenyl)-4-((6-((3aR,6aS)-tetrahydro-1H-furo[3,4-c]pyrrol-5(3H)-yl)pyridin-3-yl)amino)-6,7-dihydro-5H-pyrrolo[3,4-b]pyridin-5-one], in that order: 10 to 100 nM and not below 1000 nM.
In the case of `CC1(C)Cc2ccc(Nc3cc(-c4c(F)cccc4F)nc4c3C(=O)NC4)cc2O1` [Compound I-71, 2-(2,6-difluorophenyl)-4-((2,2-dimethyl-2,3-dihydrobenzofuran-6-yl)amino)-6,7-dihydro-5H-pyrrolo[3,4-b]pyridin-5-one], the Ki in assay [1] was 10 to 100 nM; in assay [2], 100 to 1000 nM.
In the case of `O=C1NCc2nc(-c3c(F)cccc3F)cc(Nc3ccc4c(c3)COB4O)c21` [Compound I-61, 2-(2,6-difluorophenyl)-4-((1-hydroxy-1,3-dihydro-benzo-[c][1,2]oxaborol-5-yl)amino)-6,7-dihydro-5H-pyrrolo[3,4-b]pyridin-5-one], the figures for the Ki in assay [1] and in assay [2] were 10 to 100 nM and not below 1000 nM, respectively.
In the case of `C[C@@](N)(C(=O)O)c1ccc(Nc2nc(-c3c(F)cccc3F)nc3c2C(=O)NC3)cc1` [Compound I-45, (S)-2-amino-2-(4-((2-(2,6-difluorophenyl)-5-oxo-6,7-dihydro-5H-pyrrolo[3,4-d]pyrimidin-4-yl)amino)phenyl)propanoic acid hydrochloride], the Ki in assay [1] is not above 10 nM; in assay [2] it was 100 to 1000 nM.
Regarding `CC(O)(c1ccc(Nc2cc(-c3c(F)cccc3F)nc3c2C(=O)NC3)nc1)C(F)(F)F` (centres unmarked) [Compound I-78, 2-(2,6-difluorophenyl)-4-((5-(1,1,1-trifluoro-2-hydroxypropan-2-yl)pyridin-2-yl)amino)-6,7-dihydro-5H-pyrrolo[3,4-b]pyridin-5-one], the Ki in assay [1] is not above 10 nM; in assay [2] it was 10 to 100 nM.
As to `O=C1NCc2nc(-c3c(F)cccc3F)cc(Nc3ccc(C(O)(C(F)(F)F)C(F)(F)F)cc3)c21` [Compound I-66, 2-(2,6-difluorophenyl)-4-((4-(1,1,1,3,3,3-hexafluoro-2-hydroxy-propan-2-yl)phenyl)amino)-6,7-dihydro-5H-pyrrolo[3,4-b]pyridin-5-one], the values for the Ki in assay [1] and in assay [2] were not above 10 nM and 10 to 100 nM, respectively.
Take `CC(O)(C(=O)O)c1ccc(Nc2nc(-c3c(F)cccc3F)nc3c2C(=O)NC3)cc1` (centres unmarked) [Compound I-6, 2-(4-((2-(2,6-difluorophenyl)-5-oxo-6,7-dihydro-5H-pyrrolo-[3,4-d]pyrimidin-4-yl)amino)phenyl)-2-hydroxypropanoic acid]: the values for the inhibitory constant (Ki) in assay [1] and in assay [2] were not above 10 nM and 100 to 1000 nM, respectively.
With `CC1(C)COc2cc(Nc3cc(-c4c(F)cccc4C#N)nc4c3C(=O)NC4)ccc21` [Compound I-80, 2-(4-((3,3-dimethyl-2,3-dihydrobenzofuran-6-yl)amino)-5-oxo-6,7-dihydro-5H-pyrrolo[3,4-b]pyridin-2-yl)-3-fluorobenzonitrile], the results for the Ki in assay [1] and in assay [2] were not above 10 nM and 10 to 100 nM, respectively.
`O=C1NCc2nc(-c3c(F)cccc3F)nc(Nc3ccc(C(=O)N4CC5CCC(C4)O5)cc3)c21` [Compound I-5, 4-((4-(8-oxa-3-azabicyclo[3.2.1]octane-3-carbonyl)phenyl)-amino)-2-(2,6-difluorophenyl)-6,7-dihydro-5H-pyrrolo[3,4-d]pyrimidin-5-one]: the values for the Ki in assay [1] and in assay [2] were not above 10 nM and 100 to 1000 nM, respectively.
As to `CN1CCc2cc(Nc3cc(-c4c(F)cccc4F)nc4c3C(=O)NC4)ccc2C1=O` [Compound I-64, 6-((2-(2,6-difluorophenyl)-5-oxo-6,7-dihydro-5H-pyrrolo[3,4-b]pyridin-4-yl)amino)-2-methyl-3,4-dihydroisoquinolin-1 (2H)-one], the Ki in assay [1] was not above 10 nM; in assay [2] it was 10 to 100 nM.
As for `CC(O)(c1ccc(Nc2nc(-c3c(F)cccc3F)nc3c2C(=O)NC3)cc1)C(F)(F)F` (centres unmarked) [Compound I-33, 2-(2,6-difluorophenyl)-4-((4-(1,1,1-trifluoro-2-hydroxy-propan-2-yl)phenyl)amino)-6,7-dihydro-5H-pyrrolo[3,4-d]pyrimidin-5-one], the values for the Ki in assay [1] and in assay [2] were not above 10 nM and 100 to 1000 nM, respectively.
As to `CN1C(=O)[C@@](C)(c2ccc(Nc3nc(-c4c(F)cccc4F)nc4c3C(=O)NC4)cc2)Oc2ccccc21` [Compound I-41, (R)-2-(4-((2-(2,6-difluorophenyl)-5-oxo-6,7-dihydro-5H-pyrrolo[3,4-d]pyrimidin-4-yl)amino)phenyl)-2,4-dimethyl-2H-benzo[b][1,4]oxazin-3(4H)-one], the Ki in assay [1] and in assay [2] was 100 to 1000 nM throughout.
